Measurements from patent publication US9266817B2, “Catecholamine derivatives for obesity and neurological disorders” (EMORY UNIVERSITY, priority 2009, dated 2016).
Entries after “also recorded” stand apart in the source; their conditions may differ.

How the values were obtained:
[1] = molecular target: TrkB (Homo sapiens, UniProt Q16620); test: Activation of transfected TrkB in HEK293 cells with or without DAT or NET; type: cell-based; parameters: expressed in transfected cells; host or cells: HEK293; details: NET transfected HEK293 cells
[2] = test system: TrkB F616A cortical neurons; test: Glutamate-provoked apoptosis of TrkB F616A cortical neurons (TUNEL assay); type: cell-based, mice; details: 50 mM glutamate overnight
Experimental: Norepinephrine has neuroprotective activity against oxidative stress-induced neuronal apoptosis. To investigate whether this protective action by norepinephrine is mediated through TrkB, apoptosis of TrkB F616A cortical neurons was monitored. Primary cortical neurons were pretreated with inhibitors K252a or 1NMPP1 followed by overnight treatment with 50 mM glutamate.

[3] = molecular target: T1, TrkB (Rattus norvegicus, UniProt Q63604); test: TrkB activation in cortical neurons after pretreatment with antibodies, receptor antagonists, transporter inhibitors or EDTA (anti-p-TrkB-Y-816 immunoblot); type: cell-based
T1 construct: endogenous in cells; host or cells: primary rat cortical and hippocampal neurons
From the text: Both antidepressants and exercise increase hippocampal BDNF mRNA expression through enhanced 5-HT and/or NE neurotransmission (Siuciak et al., Pharmacol. Biochem. Behav., 56:131-137, 1997; Dias et al., Neuropharmacology, 45:553-563, 2003; Ivy et al., Pharmacol. Biochem. Behav., 75:81-88, 2003; Garza et al., Pharmacol. Biochem. Behav., 77:209-220, 2004). If catecholamines activated TrkB signaling indirectly by promoting BDNF generation, then scavenging BDNF with its specific antibody would be expected to diminish catecholamines-mediated activation of TrkB. Cultured cortical neurons were pretreated with BDNF-IgG for 30 minutes followed by exposure to BDNF (10 ng/ml) or catecholamines (100 nM) for 15 minutes. […] It was then determined whether catecholamines could activate TrkB in neurons cultured from mice carrying a null mutation of BDNF.
To further investigate the specificity of catecholamines in inducing TrkB activation, cortical neurons were pretreated with control IgG or norepinephrine IgG, a rabbit polyclonal antibody for norepinephrine, followed by catecholamines.
(§1) It was then determined whether catecholamines could activate TrkB in neurons cultured from mice carrying a null mutation of NET.
(§2) The cell lysates were analyzed by immunoblotting with anti-p-TrkB-Y-816.
as §2
A group of primary cortical neurons were pretreated with 1 mM EDTA, and another group of primary cortical neurons were not pretreated. Both groups of primary cortical neurons were then treated with either Zn (100 μM) or a catecholamine (100 nM) for 15 minutes. The neuronal cell lysates were analyzed by immunoblotting with anti-p-TrkB-Y-816 antibody.

[4] = molecular target: T2, TrkB intracellular domain (ICD) (Homo sapiens, UniProt Q16620); test: In vitro binding assay with purified TrkB ICD and 3H-ligands (Scatchard plot); details: purified protein, 25° C., 30 minutes; read-out: TrkB binding constants (Scatchard plot)
T2 construct: purified ECD (extracellular domain) and ICD (intracellular domain) proteins from Trk receptors
Experimental: Purified TrkA and TrkB ECD or ICD proteins were incubated with different ^3H-catecholamines at 25° C. for 30 minutes in 1 ml of binding buffer (50 mM Tris-HCl, pH 7.4, 100 mM NaCl, 5 nM ^3H-catecholamines (32000 cpm)). After the incubation, the reaction mixture was loaded on a Whatman glass-fiber filter (GF-B) (Whatman Inc.; Piscataway, N.J.). The mixture was washed with 3×5 ml washing buffer (50 mM Tris-HCl, pH 7.4). The dried filter paper was put into a small vial and subjected to liquid scintillation counter analysis. The value of the dissociate constant and the number of sites were obtained from Scatchard plots by using the equation r/[L]free =n/Kd−r/Kd, where r is the ratio of the concentration of bound ligand to the total protein concentration and n is the number of binding sites.
To determine whether catecholamines bind TrkB directly, an in vitro binding assay was conducted with purified ECD (extracellular domain) and ICD (intracellular domain) proteins from Trk receptors and ^3H-catecholamines. […] To determine whether the binding by catecholamines to TrkB receptor caused dimerization, GST-TrkB was co-transfected into HEK293 cells with HA-TrkB, followed by BDNF or monoamines treatment for 15 minutes.

[5] = molecular target: T3, TrkB (Mus musculus, UniProt P15209); type: cell-based, mice; details: compared to wild-type control neurons
T3 construct: endogenous in cells; host or cells: primary cortical neurons from BDNF-null, TrkB +/- cross, TrkC knockout and NET -/- mice
Experimental: as §1

[6] = test system: TrkB F616A knockin mice; test: Kainic acid-induced neuronal apoptosis in TrkB F616A knockin mice (immunoblotting and Caspase-3 ELISA); type: in vivo; details: 50 mg/kg orally 2 hours before KA 20 mg/kg
Experimental: To determine whether Compound I-11 (ADPP) and Compound I-8 (DDAP) protect neurons from KA-induced apoptosis, TrkB F616A knockin mice were pretreated with inhibitor 1NMPP1 (16.6 ng/kg) 2 days before the experiment. Compound I-8 (DDAP) or Compound I-11 (ADPP) (50 mg/kg) was orally injected into the mice 2 hours before kainic acid (KA) administration (20 mg/kg). Brain lysates were analyzed by immunoblotting and Caspase-3 ELISA. […] The extent of the protective effect correlates with TrkB activation status by these compounds. Active Caspase-3 ELISA correlated with the immunoblotting results (FIG. 28B, right panel).

[7] = test system: mice; test: Forced swim test; type: in vivo
Experimental: Accumulating evidence supports that BDNF plays an essential role in mediating antidepressants' therapeutic effects. Infusion of exogenous BDNF into hippocampus or brain stem has antidepressant-like behavioral effect. A forced swim test is broadly used for screening of potential antidepressant drugs and is widely used to measure antidepressant activity. To explore whether Compound I-11 (ADPP) and Compound I-8 (DDAP) have antidepressant effects like BDNF, forced swim tests were conducted. Adult male mice (2-3 months old, n=8) were randomly submitted, without a pre-swim, to a forced swim test of 6 minutes with immobility recorded in the last 4 minutes. Mice were injected intraperitoneally with saline, Compound I-11 (20 mg/kg), or Compound I-8 (20 mg/kg). The mice were allowed to adapt to the test room for 2 days, and the mice were placed in a clear glass cylinder with a diameter of 16 cm, half-filled with clear water at 24° C.
To assess whether the behavior responses caused by catecholamine derivatives is mediated by TrkB receptor, TrkB F616A knockin mice were utilized. The mice were subjected to saline or 1NMPP1 inhibitor pretreatment.

[8] = molecular target: T4, TrkB F616A (Mus musculus, UniProt P15209, F616A); test: TrkB phosphorylation in TrkB F616A or TrkA F592A cortical neurons pretreated with K252a or 1NMPP1; type: cell-based, mice; details: primary TrkB F616A cortical neurons, 100 nM inhibitor 30 min, 500 nM compound
T4 construct: endogenous in cells; host or cells: primary cortical neurons from TrkB F616A knock-in mice
Experimental: TrkB F616A mice were pretreated with 1NMPP1 (50 μM) before L-DOPA or DOPS administration.
On day 7, the primary cortical neurons were pretreated with 100 nM K252a or 1NMPP1 for 30 min, followed by 500 nM ADPP and DDAP. Cell lysates were analyzed by Western blotting.

[9] = test system: TrkB; test: TrkB activation in mouse brain after administration of catecholamine derivatives (anti-p-TrkB-Y-816 immunoblot); type: in vivo
Experimental: To explore whether these compounds could stimulate TrkB in vivo, 50 mg/kg of Compound I-11, Compound I-8, and Compound I-2 (2-(methylamino)-3′,4′-dihydroxy-acetophenone) were each orally administered (in saline) to 2-month-old C57BL/6J mice. The mice were sacrificed at different time points and TrkB activation in the brains of the mice was monitored by immunoblotting with anti-p-TrkB-Y-816 antibody.
To determine the minimal required dosages for Compound I-11 and Compound I-8, different doses of the compounds were each orally administered to mice. The mice were sacrificed after 4 hours, and the brain lysates were analyzed by immunoblotting with anti-p-TrkB-Y-816 antibody.
To search for orally bioactive catecholamines, catecholamine derivatives described herein were screened using primary neuronal cultures. The in vitro active compounds, Compounds I-8 and I-11, were adminstered into two to three month old C57BL/6J mice orally, intraperitoneally, and in drinking water. For oral administration, the mice were administered 0 mg (control), 5 mg, 10 mg, 20 mg, or 50 mg of Compound I-8 or Compound I-11. After 4 hours, TrkB phosphorylation in mouse brain was monitored by analyzing the brain lysates using immunoblotting with anti-p-TrkB-Y-816 antibody. The ratios of p-TrK/total TrkB were quantified (FIG. 27A). For intraperitoneal administration, 50 mg/kg of Compound I-8 or Compound I-11 were intraperitoneally injected into the mice. The brain lysates were prepared at different times (0 hr, 1 hr, 2 hr, 4 hr, and 8 hr) and were analyzed by immunoblotting with anti-p-TrkB-Y-816 antibody (FIG. 27B). Compound I-8 and Compound I-11 were dissolved in drinking water and given to mice. After 24 h, the brain lysates were prepared and analyzed by immunoblotting with anti-p-TrkB-Y-816 antibody (FIG. 27C). […] Therefore, these compounds are useful in treating various neurological or neuropsychiatric diseases as described herein.

[10] = molecular target: T1, TrkB; test: Screening of catecholamine derivatives for TrkB activation in primary cortical neurons (anti-p-TrkB-Y-816 immunoblot); type: cell-based; details: 500 nM, 30 min
Experimental: Catecholamines can directly bind to the kinase domain of the TrkB receptor and activate it. However, the catecholamines are not able to cross through the blood brain barrier. […] Cortical neurons (7 DIV cortical neurons from 18 day old Sprague Dawley rat embryos) were treated with 500 nM of the selected compound for 30 min and cell lysates were prepared. The cell lysates ([…]) were analyzed for TrkB activation by immunoblotting with anti-p-TrkB-Y-816 antibody.
Catecholamine derivatives as described herein, including Compound I-2, Compound I-5, Compound I-7, Compound I-8, Compound I-9, Compound I-10, Compound I-11, Compound I-14, Compound I-15, Compound I-17, Compound I-18, and isoproterenol, were screened for TrkB activation in primary cortical neurons. Cortical neurons (7 DIV cortical neurons from 18 day old Sprague Dawley rat embryos) were treated with 500 nM of the selected compound for 30 min and cell lysates were prepared. The cell lysates ([…]) were analyzed for TrkB activation by immunoblotting with anti-p-TrkB-Y-816 antibody.

T1 sequence (Q63604 32-821): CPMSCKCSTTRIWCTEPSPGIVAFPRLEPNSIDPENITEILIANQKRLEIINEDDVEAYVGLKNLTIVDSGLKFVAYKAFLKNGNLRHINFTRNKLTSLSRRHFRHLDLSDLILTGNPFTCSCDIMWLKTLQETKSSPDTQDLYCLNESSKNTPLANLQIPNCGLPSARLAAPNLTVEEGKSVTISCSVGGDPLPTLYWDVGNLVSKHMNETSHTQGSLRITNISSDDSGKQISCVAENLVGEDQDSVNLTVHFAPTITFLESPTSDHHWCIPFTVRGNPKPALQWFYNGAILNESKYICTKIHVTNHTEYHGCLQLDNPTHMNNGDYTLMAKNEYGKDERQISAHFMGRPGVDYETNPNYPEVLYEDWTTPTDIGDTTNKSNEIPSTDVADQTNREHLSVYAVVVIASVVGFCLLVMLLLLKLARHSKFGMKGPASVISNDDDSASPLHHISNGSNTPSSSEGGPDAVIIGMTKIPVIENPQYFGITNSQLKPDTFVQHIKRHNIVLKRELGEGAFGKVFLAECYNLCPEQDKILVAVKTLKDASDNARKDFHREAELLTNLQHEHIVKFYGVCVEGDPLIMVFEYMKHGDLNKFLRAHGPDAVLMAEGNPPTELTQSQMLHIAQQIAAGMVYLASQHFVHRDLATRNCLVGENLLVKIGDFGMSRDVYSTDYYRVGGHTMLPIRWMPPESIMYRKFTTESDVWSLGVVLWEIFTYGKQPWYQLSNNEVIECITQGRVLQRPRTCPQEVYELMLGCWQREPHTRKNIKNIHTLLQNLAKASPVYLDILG
TrkB (Homo sapiens, UniProt Q16620), sequence (Q16620 32-822, species assumed): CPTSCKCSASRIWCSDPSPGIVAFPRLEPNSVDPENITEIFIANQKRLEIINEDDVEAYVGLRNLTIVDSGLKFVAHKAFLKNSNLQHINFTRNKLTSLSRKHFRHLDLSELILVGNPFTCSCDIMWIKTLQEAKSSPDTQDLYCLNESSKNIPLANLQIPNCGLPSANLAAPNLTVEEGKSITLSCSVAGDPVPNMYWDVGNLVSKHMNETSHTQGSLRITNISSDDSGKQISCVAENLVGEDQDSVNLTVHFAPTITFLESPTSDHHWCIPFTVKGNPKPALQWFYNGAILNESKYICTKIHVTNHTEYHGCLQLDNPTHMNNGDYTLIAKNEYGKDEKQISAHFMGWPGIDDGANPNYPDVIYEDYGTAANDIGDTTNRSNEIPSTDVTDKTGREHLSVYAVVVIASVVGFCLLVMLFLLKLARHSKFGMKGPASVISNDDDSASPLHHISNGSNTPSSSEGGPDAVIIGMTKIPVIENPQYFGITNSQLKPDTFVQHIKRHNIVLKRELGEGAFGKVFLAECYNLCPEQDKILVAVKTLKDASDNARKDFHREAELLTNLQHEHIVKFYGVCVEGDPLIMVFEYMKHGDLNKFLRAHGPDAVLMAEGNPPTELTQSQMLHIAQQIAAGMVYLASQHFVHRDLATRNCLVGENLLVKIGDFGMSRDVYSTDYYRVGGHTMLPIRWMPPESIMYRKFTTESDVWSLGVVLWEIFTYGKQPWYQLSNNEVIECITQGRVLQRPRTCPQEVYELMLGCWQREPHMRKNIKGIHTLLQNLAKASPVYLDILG
T4 sequence (P15209 32-821 F616A): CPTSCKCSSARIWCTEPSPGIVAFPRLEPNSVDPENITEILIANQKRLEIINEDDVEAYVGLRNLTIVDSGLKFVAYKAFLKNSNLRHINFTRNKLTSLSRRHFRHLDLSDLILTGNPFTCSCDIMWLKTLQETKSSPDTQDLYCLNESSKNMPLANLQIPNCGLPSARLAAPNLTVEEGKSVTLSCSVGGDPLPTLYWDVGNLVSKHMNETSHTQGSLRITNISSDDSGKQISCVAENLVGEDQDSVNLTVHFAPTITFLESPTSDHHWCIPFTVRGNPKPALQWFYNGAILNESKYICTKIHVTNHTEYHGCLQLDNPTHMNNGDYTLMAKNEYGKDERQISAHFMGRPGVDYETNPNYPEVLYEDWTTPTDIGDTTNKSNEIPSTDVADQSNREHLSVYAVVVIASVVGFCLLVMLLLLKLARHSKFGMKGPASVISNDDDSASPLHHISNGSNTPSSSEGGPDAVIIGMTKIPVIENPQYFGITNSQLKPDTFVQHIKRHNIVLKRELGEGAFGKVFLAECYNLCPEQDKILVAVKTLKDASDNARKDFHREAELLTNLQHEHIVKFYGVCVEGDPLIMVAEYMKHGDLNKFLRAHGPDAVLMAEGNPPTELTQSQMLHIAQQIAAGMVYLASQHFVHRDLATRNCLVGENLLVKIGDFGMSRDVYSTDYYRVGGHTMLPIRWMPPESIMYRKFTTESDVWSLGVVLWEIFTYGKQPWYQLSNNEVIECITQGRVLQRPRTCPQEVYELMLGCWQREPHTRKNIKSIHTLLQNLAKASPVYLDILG
T3 sequence (P15209 32-821): as the sequence (P15209 32-821 F616A) above, with A585F counted along it
T2 sequence (Q16620 455-822 limits assumed): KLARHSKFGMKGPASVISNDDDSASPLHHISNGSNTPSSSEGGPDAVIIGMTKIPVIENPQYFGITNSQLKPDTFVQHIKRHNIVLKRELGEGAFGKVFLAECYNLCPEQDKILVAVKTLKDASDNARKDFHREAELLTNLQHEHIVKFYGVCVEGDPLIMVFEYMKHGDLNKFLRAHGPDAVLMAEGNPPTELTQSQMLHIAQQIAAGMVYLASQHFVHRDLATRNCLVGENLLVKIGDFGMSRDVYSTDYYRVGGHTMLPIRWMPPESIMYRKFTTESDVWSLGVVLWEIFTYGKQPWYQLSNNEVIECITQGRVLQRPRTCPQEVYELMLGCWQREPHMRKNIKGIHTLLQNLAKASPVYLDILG

NC[C@H](O)c1ccc(O)c(O)c1 [norepinephrine]
Increase of stimulatory activity by overexpression of NET compared to control cells [1]: approximately 100 fold
Glutamate-provoked neuronal cell death [2]: robustly suppressed
Effect of norepinephrine IgG on the agonistic effect of the substance on TrkB activation ([3]; IgG 15 min, then 300 nM catecholamines 15 min): selectively inhibited
Effect of norepinephrine IgG on the agonistic effect of the substance ([3]; compared to control IgG): selectively neutralized
Kd [4]: 98 µM
TrkB activation in NET -/- neurons [5]: completely blocked

CC(N)C(=O)c1ccc(O)c(O)c1 (centres unmarked) [Compound I-11, 2-amino-3′,4′-dihydroxy-propiophenone]
Kainic acid (KA)-provoked neuronal cell death in mouse brain [6]: potently suppress; also recorded: robustly repressed
Swimming immobility ([7]; 20 mg/kg intraperitoneally, adult male mice): significantly decreased
Immobility time after 1NMPP1 treatment ([7]; TrkB F616A knockin mice, 1NMPP1 pretreatment): still active in decreasing immobility
TrkB activation by the compound after K252a or 1NMPP1 pretreatment [8]: selectively blocked by 1NMPP1 but not K252a
Time at which TrkB activity peaked ([9]; 50 mg/kg orally): 8 h
TrkB activation in the brains of the mice ([9]; 50 mg/kg orally (in saline), C57BL/6J mice): potently activated TrkB
Oral bioavailability ([9]; mice): orally bio-available
Passage through the blood brain barrier ([9]; orally administered, mouse brain): can pass through the blood brain barrier
Minimal dosage required to activate TrkB ([9]; orally, mice sacrificed after 4 hours): 10 mg/kg
TrkB activation in mouse brains ([9]; via drinking water or intraperitoneal injection): potently activate TrkB
TrkB activation in primary cortical neurons [10]: prominently activated TrkB; also recorded: prominent stimulatory effect
